In patent publication US20070299092A1 (Wyeth, priority 2004, published 2007):
Where “and” joins values, the source holds several entries; their conditions need not be identical. Equal entries are not always repeated. Where two headings read alike, the source gives them in different places.

Key:
[1] = molecular target: T1, human KDR (VEGF-receptor-2) (Homo sapiens, UniProt P35968); test: KDR kinase enzyme assay (DELFIA, KDR-IC-Flag, poly(Glu4-Tyr) peptide); format: biochemical; conditions: for inhibition at 0.1 µM: Concentration 100 nM; for inhibition at 1 µM: Concentration 1000 nM
T1 construct: beginning at Met-806; (5′-ATG GAT CCA GAT GM CTC CCA TTG) and ending at Val-1356; made in house

KDR = KDR (Homo sapiens, UniProt P35968); test: cell-based; conditions: read-out: % Inhibition of KDR kinase autophosphorylation in KDR15 cells, compound conc. 1000 nM
[2] = test system: Human umbilical vein endothelial cells (HUVEC); test: HUVEC proliferation assay, VEGF-dependent growth ([3H]-thymidine incorporation); format: cell-based; conditions: for inhibition at 0.1 µM / inhibition at 10 µM / inhibition at 1 µM: Homo sapiens, HUVEC
Procedure: Cells were plated into 96-well dishes (4000 cells per well) and allowed to attach overnight. HUVEC were rinsed one time with 100 μl of EBMc-V (EBM supplemented with all above components except serum or VEGF), then 50 ul of EBMc-V was added to cells. Compounds were prepared at 200× stocks in DMSO, diluted into EBMc-V media as 4× stocks, then 50 ul added to appropriate wells. Finally, 100 μl of 2×VEGF (100 ng/ml prepared in EBMc-V; final 50 ng/ml VEGF) was added to all VEGF-treated wells. EBMc-V (no VEGF) was added to negative control wells. Parallel compound-treated plates were prepared except that 100 μl of EGM2 media containing 2% serum but lacking VEGF (EGMc-V) was added. Cells were incubated for 4-5 days at 37° C.
DNA synthesis was assessed by thymidine incorporation. Cells were incubated for 5 hours in 1 μCi of [^3H]-thymidine (PerkinElmer) by addition of 10 ul of 0.1 μCi/ul thymidine prepared in PBS to each well. After incubation, media was aspirated and the cells trypsinized and collected onto a mat using a vacuum-based Micro Cell Harvester (Skatron). [^3H]-thymidine was counted in a liquid scintillation counter. Compounds evaluated for ability to inhibit VEGF-dependent growth of human umbilical vein endothelial cells (HUVEC).

[3] = ATP conc. 10 μM, read-out: % Inhibition
[4] = ATP conc. 1000 μM, read-out: % Inhibition

T1 sequence (P35968 806-1356): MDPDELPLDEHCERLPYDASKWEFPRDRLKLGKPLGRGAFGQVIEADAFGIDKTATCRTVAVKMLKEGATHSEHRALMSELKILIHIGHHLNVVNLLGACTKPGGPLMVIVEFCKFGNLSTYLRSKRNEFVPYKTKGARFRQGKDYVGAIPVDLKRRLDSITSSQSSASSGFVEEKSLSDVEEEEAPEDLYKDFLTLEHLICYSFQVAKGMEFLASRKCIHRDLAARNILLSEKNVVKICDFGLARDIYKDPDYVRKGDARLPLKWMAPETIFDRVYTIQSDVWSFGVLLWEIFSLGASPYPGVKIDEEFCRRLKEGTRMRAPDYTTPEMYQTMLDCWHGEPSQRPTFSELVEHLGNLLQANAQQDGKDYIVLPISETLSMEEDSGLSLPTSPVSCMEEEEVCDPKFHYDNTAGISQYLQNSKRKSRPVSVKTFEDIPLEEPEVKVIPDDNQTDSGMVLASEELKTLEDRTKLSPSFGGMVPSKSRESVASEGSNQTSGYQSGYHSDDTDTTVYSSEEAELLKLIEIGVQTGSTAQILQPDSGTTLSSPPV
KDR, sequence (P35968 20-1356): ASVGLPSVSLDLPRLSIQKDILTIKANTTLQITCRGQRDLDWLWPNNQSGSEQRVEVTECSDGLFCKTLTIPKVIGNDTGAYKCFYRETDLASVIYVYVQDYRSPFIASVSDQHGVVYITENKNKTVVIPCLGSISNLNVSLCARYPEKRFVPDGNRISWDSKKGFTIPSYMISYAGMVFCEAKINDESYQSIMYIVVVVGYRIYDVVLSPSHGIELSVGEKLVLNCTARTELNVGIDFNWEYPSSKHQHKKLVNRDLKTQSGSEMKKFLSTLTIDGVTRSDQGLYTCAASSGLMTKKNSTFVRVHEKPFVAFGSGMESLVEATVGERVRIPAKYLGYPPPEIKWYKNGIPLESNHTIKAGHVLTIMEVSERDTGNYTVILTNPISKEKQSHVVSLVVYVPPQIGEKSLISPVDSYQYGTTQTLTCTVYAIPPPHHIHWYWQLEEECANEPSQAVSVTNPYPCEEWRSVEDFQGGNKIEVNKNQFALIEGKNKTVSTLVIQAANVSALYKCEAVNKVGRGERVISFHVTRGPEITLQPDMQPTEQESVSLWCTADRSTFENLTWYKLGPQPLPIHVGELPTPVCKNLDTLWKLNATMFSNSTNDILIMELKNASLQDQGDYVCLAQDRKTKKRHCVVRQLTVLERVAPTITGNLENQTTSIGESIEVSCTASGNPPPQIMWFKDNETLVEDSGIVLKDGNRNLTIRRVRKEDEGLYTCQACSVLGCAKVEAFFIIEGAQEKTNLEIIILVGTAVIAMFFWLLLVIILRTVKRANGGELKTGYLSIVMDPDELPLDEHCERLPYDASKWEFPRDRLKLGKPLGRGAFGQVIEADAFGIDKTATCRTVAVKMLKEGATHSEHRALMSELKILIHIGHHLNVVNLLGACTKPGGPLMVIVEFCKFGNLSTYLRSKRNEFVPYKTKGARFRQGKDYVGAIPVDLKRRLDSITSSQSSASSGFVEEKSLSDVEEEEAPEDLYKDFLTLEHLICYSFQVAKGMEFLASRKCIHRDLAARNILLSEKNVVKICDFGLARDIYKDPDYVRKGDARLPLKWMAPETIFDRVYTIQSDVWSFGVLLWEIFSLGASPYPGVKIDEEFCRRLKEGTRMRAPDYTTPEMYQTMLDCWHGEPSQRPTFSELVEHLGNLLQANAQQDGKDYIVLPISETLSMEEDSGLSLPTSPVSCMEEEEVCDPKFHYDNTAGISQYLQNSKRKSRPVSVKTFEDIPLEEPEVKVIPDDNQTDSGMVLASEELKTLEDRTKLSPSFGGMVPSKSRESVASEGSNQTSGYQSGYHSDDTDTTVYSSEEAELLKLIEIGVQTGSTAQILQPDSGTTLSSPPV

| inhibition at 0.1 µM [1, 3] | inhibition at 1 µM [1, 3] | inhibition at 1 µM [1, 4] | inhibition at 1 µM (KDR) | IC50 ([1]; ATP conc. 10 μM) | SMILES | inhibition at 10 µM ([2]; conc. 10000 nM) | inhibition at 0.1 µM ([1]; ATP conc. 10 μM) | inhibition at 1 µM ([1]; ATP conc. 10 μM) | inhibition at 1 µM ([1]; ATP conc. 1000 μM) | further results |
| --- | --- | --- | --- | --- | --- | --- | --- | --- | --- | --- |
| 18% | 49% | 60% | 56% |  | COc1cc2ncnc(NC3=CC(=O)C4(C)OC4C3=O)c2cc1OC (stereo not shown) [Example 5, 4-[(6,7-dimethoxy-4-quinazolinyl)amino]-1-methyl-7-oxabicyclo[4.1.0]hept-3-ene-2,5-dione] |  |  |  |  |  |
|  |  |  |  |  | COCCOc1cc2ncnc(NC3=CC(=O)C(C)=CC3=O)c2cc1OC [Example 15, 2-{[6-methoxy-7-(2-methoxyethoxy)-4-quinazolinyl]amino}-5-methylbenzo-1,4-quinone] | 96% |  |  |  | inhibition at 0.1 µM ([2]; conc. 100 nM): 24%; % Inhibition of VEGF-dependent growth of HUVEC ([2]; conc. 100 nM): 40% and 42%; % Inhibition of VEGF-dependent growth of HUVEC ([2]; conc. 1000 nM): 86% and 95% and 67%; % Inhibition of VEGF-dependent growth of HUVEC ([2]; conc. 10000 nM): 98% and 97% |
| 13% | 2% | -30% | 27% |  | COCCOc1cc2ncnc(NC3=C(Sc4ccccc4)C(=O)C=C(OC)C3=O)c2cc1OC [Example 18, 5-methoxy-3-{[6-methoxy-7-(2-methoxyethoxy)quinazolin-4-yl]amino}-2-(phenylthio)benzo-1,4-quinone] |  |  |  |  |  |
| 41% | 88% | 88% | -10% |  | COCCOc1cc2ncnc(NC3=C(SCc4ccccc4)C(=O)C=C(OC)C3=O)c2cc1OC [Example 19, 2-(benzylthio)-5-methoxy-3-{[6-methoxy-7-(2-methoxyethoxy)quinazolin-4-yl]amino}benzo-1,4-quinone] |  |  |  |  |  |
| 96% | 92% | 96% | 0% |  | COCCOc1cc2ncnc(NC3=CC(=O)C(Sc4ccccc4)=CC3=O)c2cc1OC [Example 24, 2-{[6-methoxy-7-(2-methoxyethoxy)quinazolin-4-yl]amino}-5-(phenylthio)benzo-1,4-quinone] |  |  |  |  |  |
|  |  |  |  |  | COCCOc1cc2ncnc(NC3=CC(=O)C(Cl)=CC3=O)c2cc1OC [Example 25, 2-chloro-5-{[6-methoxy-7-(2-methoxyethoxy)quinazolin-4-yl]amino}benzo-1,4-quinone] | 81% |  |  |  | inhibition at 0.1 µM ([2]; conc. 100 nM): 29%; inhibition at 1 µM ([2]; conc. 1000 nM): 51% |
| 63% | 96% | 98% | 25% | 34.4 nM | COCCOc1cc2ncnc(NC3=CC(=O)C(Oc4cccc(C#N)c4)=CC3=O)c2cc1OC [Example 27, 3-[(4-{[6-methoxy-7-(2-methoxyethoxy)quinazolin-4-yl]amino}-3,6-dioxocyclohexa-1,4-dien-1-yl)oxy]benzonitrile] |  |  |  |  |  |
|  |  |  |  |  | COCCOc1cc2ncnc(NC3=CC(=O)C(Oc4ccc(F)cc4)=CC3=O)c2cc1OC [Example 30, 2-(4-fluorophenoxy)-5-{[6-methoxy-7-(2-methoxyethoxy)quinazolin-4-yl]amino}benzo-1,4-quinone] |  | 83% | 96% | 98% |  |
|  |  |  |  |  | COCCOc1cc2ncnc(NC3=CC(=O)C(Oc4ccc(C#N)cc4)=CC3=O)c2cc1OC [Example 31, 4-[(4-{[6-methoxy-7-(2-methoxyethoxy)quinazolin-4-yl]amino}-3,6-dioxocyclohexa-1,4-dien-1-yl)oxy]benzonitrile] |  | 82% | 96% | 98% |  |
|  |  |  |  | 4.8 nM | COCCOc1cc2ncnc(NC3=CC(=O)C(Oc4ccc(OC)cc4)=CC3=O)c2cc1OC [Example 32, 2-{[6-methoxy-7-(2-methoxyethoxy)quinazolin-4-yl]amino}-5-(4-methoxyphenoxy)benzo-1,4-quinone] | 98% | 88% | 96% | 98% | inhibition at 0.1 µM ([2]; conc. 100 nM): 10%; inhibition at 1 µM ([2]; conc. 1000 nM): 41% |
| 55% | 95% | 97% | 12% |  | COCCOc1cc2ncnc(NC3=CC(=O)C(Oc4cccc(C(C)=O)c4)=CC3=O)c2cc1OC [Example 34, 2-(3-acetylphenoxy)-5-{[6-methoxy-7-(2-methoxyethoxy)quinazolin-4-yl]amino}benzo-1,4-quinone] |  |  |  |  |  |
| 79% | 96% | 98% |  |  | COCCOc1cc2ncnc(NC3=CC(=O)C(Oc4ccc(C(F)(F)F)cc4)=CC3=O)c2cc1OC [Example 36, 2-{[6-methoxy-7-(2-methoxyethoxy)quinazolin-4-yl]amino}-5-[4-(trifluoromethyl)phenoxy]benzo-1,4-quinone] |  |  |  |  |  |
| 45% | 89% |  |  | 121 nM | COCCOc1cc2ncnc(NC3=CC(=O)C(Oc4cccc(C(F)(F)F)c4)=CC3=O)c2cc1OC [Example 43, 2-{[6-methoxy-7-(2-methoxyethoxy)quinazolin-4-yl]amino}-5-[3-(trifluoromethyl)phenoxy]benzo-1,4-quinone] | 88% |  |  |  | inhibition at 1 µM ([2]; conc. 1000 nM): 36% |
| 90% | 93% |  |  | 5.4 nM | COCCOc1cc2ncnc(NC3=CC(=O)C(Oc4ccc(C(=O)/C=C/c5ccccc5)cc4)=CC3=O)c2cc1OC [Example 55, 2-{[6-methoxy-7-(2-methoxyethoxy)quinazolin-4-yl]amino}-5-{4-[(2E)-3-phenylprop-2-enoyl]phenoxy}benzo-1,4-quinone] | 99% |  |  |  | inhibition at 0.1 µM ([2]; conc. 100 nM): 7%; inhibition at 1 µM ([2]; conc. 1000 nM): 61% |
| 69% | 81% |  |  | 62.2 nM | COCCOc1cc2ncnc(NC3=CC(=O)C(Oc4ccc(C(C)(C)c5ccccc5)cc4)=CC3=O)c2cc1OC [Example 56, 2-{[6-methoxy-7-(2-methoxyethoxy)quinazolin-4-yl]amino}-5-[4-(1-methyl-1-phenylethyl)phenoxy]benzo-1,4-quinone] |  |  |  |  |  |
| 41% | 85% | 58% |  | 273 nM | COCCOc1cc2ncc(C#N)c(NC3=CC(=O)C(Oc4ccccc4)=CC3=O)c2cc1OC [Example 71, 4-[(3,6-dioxo-4-phenoxycyclohexa-1,4-dien-1-yl)amino]-6-methoxy-7-(2-methoxyethoxy)quinoline-3-carbonitrile] |  |  |  |  |  |
|  |  |  |  |  | COCCOc1cc2ncnc(NC3=CC(=O)C(N(C)c4ccccc4)=CC3=O)c2cc1OC [Example 76, 2-{[6-methoxy-7-(2-methoxyethoxy)quinazolin-4-yl]amino}-5-[methyl(phenyl)amino]benzo-1,4-quinone] | 96% |  |  |  | inhibition at 0.1 µM ([2]; conc. 100 nM): -30%; inhibition at 1 µM ([2]; conc. 1000 nM): 63% |
|  |  |  |  |  | COCCOc1cc2ncnc(NC3=CC(=O)C(OC)=CC3=O)c2cc1OC [Example 105, 2-(methoxy)-5-{[6-methoxy-7-(2-methoxyethoxy)quinazolin-4-yl]amino}benzo-1,4-quinone] | 88% |  |  |  | inhibition at 0.1 µM ([2]; conc. 100 nM): -1%; inhibition at 1 µM ([2]; conc. 1000 nM): 36% |

| SMILES | inhibition at 0.1 µM [1, 3] | inhibition at 1 µM [1, 3] | inhibition at 1 µM [1, 4] | inhibition at 1 µM (KDR) | IC50 ([1]; ATP conc. 10 μM) | inhibition at 10 µM ([2]; conc. 10000 nM) | inhibition at 0.1 µM ([1]; ATP conc. 10 μM) | inhibition at 1 µM ([1]; ATP conc. 10 μM) | inhibition at 1 µM ([1]; ATP conc. 1000 μM) | further results |
| --- | --- | --- | --- | --- | --- | --- | --- | --- | --- | --- |
| COCCOc1cc2ncnc(NC3=CC(=O)C(Oc4cccc(OC)c4)=CC3=O)c2cc1OC [Example 28, 2-{[6-methoxy-7-(2-methoxyethoxy)quinazolin-4-yl]amino}-5-(3-methoxyphenoxy)benzo-1,4-quinone] |  |  |  | 35% | 12.1 nM |  | 83% | 96% | 98% |  |
| COCCOc1cc2ncnc(NC3=CC(=O)C(Oc4ccc(Oc5ccccc5)cc4)=CC3=O)c2cc1OC [Example 29, 2-{[6-methoxy-7-(2-methoxyethoxy)quinazolin-4-yl]amino}-5-(4-phenoxyphenoxy)benzo-1,4-quinone] |  |  |  | 30% | 37.7 nM |  | 62% | 92% | 95% |  |
| COCCOc1cc2ncnc(NC3=CC(=O)C(Oc4cccc(Cl)c4)=CC3=O)c2cc1OC [Example 33, 2-(3-chlorophenoxy)-5-{[6-methoxy-7-(2-methoxyethoxy)quinazolin-4-yl]amino}benzo-1,4-quinone] |  |  |  | 19% |  |  | 84% | 96% | 98% |  |
| COCCOc1cc2ncnc(NC3=CC(=O)C(Oc4ccc(SC)cc4)=CC3=O)c2cc1OC [Example 35, 2-{[6-methoxy-7-(2-methoxyethoxy)quinazolin-4-yl]amino}-5-[4-(methylthio)phenoxy]benzo-1,4-quinone] |  |  |  | 39% |  |  | 87% | 96% | 98% |  |
